Patent US20220096399A1 (Berg LLC, priority 2012, published 2022)
Entries after “also recorded” stand apart in the source; their conditions may differ. Read-outs that look alike come from different tables or passages of the source.

What was measured:
[1] = for Maximum tolerated dose (MTD): first interim analysis, highest dose 104.3 mg/kg per dose
Method: An interim analysis was performed on the study participants.
(§1) A standard 3×3 phase I dose-escalation design was used with patients (n=31) with advanced solid malignancies.
Pharmacokinetic (PK) information was calculated with serial serum collection data. Tumor response was determined using RECIST 1.1.

[2] = test system: advanced solid malignancies
Method: The study was also performed to examine preliminary efficacy (using RECIST 1.1 criteria), overall clinical benefit, and progression free survival. An interim analysis was performed on the study participants.
as §1
Tumor response was determined using RECIST 1.1.
An exploratory assessment of antitumor activity was undertaken during the study using modified Response Criteria in Solid Tumors (RECIST) v1.1. Tumors were measured at baseline or screening, at the end of Cycle 1 and Cycle 2 treatments, and once every 2 treatment cycles (2 months) thereafter in the absence of clinically rapid progression of disease.

[3] = Phase I trial pharmacokinetic analysis (serial serum collection)
Method: Pharmacokinetic (PK) information was calculated with serial serum collection data. Tumor response was determined using RECIST 1.1. Clinical benefit (decreased pain, increased quality of life) was assessed by the treating physician.
Pharmacokinetic and pharmacodynamic analyses were performed during the study as well.

[4] = Example 4, of 39 evaluable subjects
[5] = person, pleomorphic fibrosarcoma, 6 cycles, 22.5 to 58.7 mg/kg/dose

COC1=C(OC)C(=O)C(C/C=C(\C)CC/C=C(\C)CC/C=C(\C)CC/C=C(\C)CC/C=C(\C)CC/C=C(\C)CC/C=C(\C)CC/C=C(\C)CC/C=C(\C)CCC=C(C)C)=C(C)C1=O [CoQ10, Coenzyme Q10]
Maximum tolerated dose (MTD) ([1]; 104.3 mg/kg): has not been identified; also recorded: had not been reached | Maximum tolerated dose (MTD) ([1]; listed as coenzyme Q10, 104.3 mg/kg): no MTD had been reached | Patients reporting headache during first week of treatment (%) ([1]; in vivo): 29.0% | Patients reporting headache during first week of treatment (number) ([1]; in vivo): Nine | Patients with Grade I asymptomatic elevation of INR (%) ([1]; in vivo): 74.1% | Patients with Grade I asymptomatic elevation of INR (number) ([1]; in vivo): 23 patients | Patients with Grade II INR elevation of greater than 2.0 (%) ([1]; in vivo): 45.1% | Patients with Grade II INR elevation of greater than 2.0 (number) ([1]; in vivo): 14 patients | Primary Reason for Discontinuation: Intolerable Toxicity, % ([1]; in vivo): 8% | Subjects with INR greater than 3 (%) ([1]; in vivo): 12.9% | Subjects with INR greater than 3 (number) ([1]; in vivo): four | Subjects with INR greater than 5 (%) ([1]; in vivo): 6% | Subjects with INR greater than 5 (number) ([1]; in vivo): two | Best Response: Unevaluable, % ([2]; 50 subjects): 20% | Best Response: Unknown, % ([2]; 50 subjects): 2% | Primary Reason for Discontinuation: Progressive Disease, % ([2]; 50 subjects): 52% | Best Response: Complete Response, % ([2]; 50 subjects, RECIST v1.1): 0% | Best Response: Partial Response, % ([2]; 50 subjects, RECIST v1.1): 2% | Best Response: Progressive Disease, % ([2]; 50 subjects, RECIST v1.1): 30% | Best Response: Stable Disease, % ([2]; 50 subjects, RECIST v1.1): 46% | Best outcome of partial response (number of subjects) [2, 4]: 2 subjects | Best outcome of progressive disease (number of subjects) [2, 4]: 15 subjects | Best outcome of stable disease (number of subjects) [2, 4]: 22 subjects | Average time on treatment of patients with clinical benefit ([2]; first interim analysis): 16 weeks | Median Progression Free survival ([2]; first interim analysis): 2 months | Patients with a clinical benefit (%) ([2]; first interim analysis, n=31): 61.2% | Patients with a clinical benefit (number) ([2]; first interim analysis, n=31): Nineteen | Average time subjects remained on treatment ([2]; first interim analysis, treatment until clinical progression): 90 days | Progression free survival and/or clinical benefit ([2]; interim data summary): a majority of patients enrolled in this trial had an increased progression free survival and/or clinical benefit | Tumor responses observed ([2]; interim data summary): A partial response and minor response were observed | Evaluable subjects with clinically relevant response by RECIST 1.1 (at least stable disease), number ([2]; of 40 evaluable subjects): 24 subjects | Evaluable subjects with clinically relevant response by RECIST 1.1 (at least stable disease), % ([2]; of 40 evaluable subjects who completed at least one treatment cycle): 60% | Duration of partial response ([2]; one subject with sarcoma of the extremity): at least 6 months | Individual outcome: tumor lesion (CT) ([2]; person, metastatic myxoid liposarcoma, 58.6 mg/kg/dose, four treatment cycles): resolution of their anterior mediastinal lesion | Individual outcome: tumor response ([2]; person, pleomorphic fibrosarcoma with bone metastasis, 6 cycles, 22.5 to 58.7 mg/kg/dose): minor response | Individual outcome: pain [2, 5]: significant improvement in pain | Individual outcome: tumor size (CT) [2, 5]: Tumor shrinkage was also observed | Individual outcome: duration of response ([2]; person, pleomorphic fibrosarcoma, 22.5 to 58.7 mg/kg/dose): over 10 months | Dose-proportionality of AUC ([3]; C31510 formulation, FIG. 5): not strictly proportional to dose | Dependence of t1/2 on dose ([3]; human, IV infusion): little or no dependence on dose | Linearity of pharmacokinetics ([3]; human, IV infusion): linear
